From patent US20240239861A1, “GLUCAGON-RECEPTOR SELECTIVE POLYPEPTIDES AND METHODS OF USE THEREOF” (i2O Therapeutics, Inc., priority 2016, published 2024)
Where a SMILES comes first, the peptide text is derived from it. [ ]: non-standard residue; d: D form. Aib = CC(C)(N)C(=O)O

biological target: human GLP-1R (Homo sapiens, UniProt P43220); assay: Peptide-receptor mediated cAMP accumulation (LANCE Ultra cAMP) in CHO-K1 cells transfected with human GLP-1R; format: cell-based; conditions: hGLP1 pEC50 (cAMP mean (n = 3): 11 point curve starting at 1 nM, Table 3)
Sequence (P43220 24-463): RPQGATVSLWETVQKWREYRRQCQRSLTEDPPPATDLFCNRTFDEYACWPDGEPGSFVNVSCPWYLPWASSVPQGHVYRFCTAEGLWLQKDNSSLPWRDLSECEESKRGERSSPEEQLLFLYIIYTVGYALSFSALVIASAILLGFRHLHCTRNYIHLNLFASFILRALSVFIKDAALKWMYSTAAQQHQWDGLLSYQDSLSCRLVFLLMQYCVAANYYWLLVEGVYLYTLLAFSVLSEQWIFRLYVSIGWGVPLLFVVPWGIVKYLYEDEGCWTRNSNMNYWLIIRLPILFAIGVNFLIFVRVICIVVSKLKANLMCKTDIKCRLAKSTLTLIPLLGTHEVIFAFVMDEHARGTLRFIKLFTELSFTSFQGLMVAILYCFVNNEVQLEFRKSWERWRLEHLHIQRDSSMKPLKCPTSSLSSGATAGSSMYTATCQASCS

| SMILES | EC50 [nM] |
| --- | --- |
| CC(C)C[C@H](NC(=O)[C@H](Cc1ccc(O)cc1)NC(=O)[C@H](CCCCN)NC(=O)[C@H](CO)NC(=O)[C@H](Cc1ccc(O)cc1)NC(=O)[C@H](CC(=O)O)NC(=O)[C@H](CO)NC(=O)[C@@H](NC(=O)[C@H](Cc1ccccc1)NC(=O)[C@@H](NC(=O)CNC(=O)[C@H](Cc1c[nH]cn1)NC(=O)[C@H](CO)NC(=O)[C@@H](N)Cc1ccc(O)cc1)[C@@H](C)O)[C@@H](C)O)C(=O)N[C@@H](CC(=O)O)C(=O)NC(C)(C)C(=O)N[C@@H](CCCCN)C(=O)N[C@@H](CCCNC(=N)N)C(=O)N[C@@H](C)C(=O)N[C@@H](CCC(N)=O)C(=O)N[C@@H](CCC(=O)O)C(=O)N[C@@H](Cc1ccccc1)C(=O)N[C@H](C(=O)NC(C)(C)C(=O)N[C@@H](Cc1c[nH]c2ccccc12)C(=O)N[C@@H](CC(C)C)C(=O)N[C@@H](CCC(=O)O)C(=O)N[C@@H](CCC(=O)O)C(=O)N[C@@H](CCC(=O)O)C(=O)N1CCC[C@H]1C(=O)N[C@@H](CO)C(=O)N[C@@H](CO)C(=O)NCC(=O)N[C@@H](C)C(=O)N1CCC[C@H]1C(=O)N1CCC[C@H]1C(=O)N1CCC[C@H]1C(=O)N[C@@H](CO)C(=O)O)C(C)C [Compound A9] (H-YSHGTFTSDYSKYLD[Aib]KRAQEFV[Aib]WLEEEPSSGAPPPS-OH; N-terminus assumed) | > 1 |
| CC(C)C[C@H](NC(=O)[C@H](Cc1ccc(O)cc1)NC(=O)[C@H](CCCCN)NC(=O)[C@H](CO)NC(=O)[C@H](Cc1ccc(O)cc1)NC(=O)[C@H](CC(=O)O)NC(=O)[C@H](CO)NC(=O)[C@@H](NC(=O)[C@H](Cc1ccccc1)NC(=O)[C@@H](NC(=O)CNC(=O)[C@H](Cc1c[nH]cn1)NC(=O)[C@H](CO)NC(=O)[C@@H](N)Cc1ccc(O)cc1)[C@@H](C)O)[C@@H](C)O)C(=O)N[C@@H](CC(=O)O)C(=O)NC(C)(C)C(=O)N[C@@H](CCCCN)C(=O)N[C@@H](CCCNC(=N)N)C(=O)N[C@@H](C)C(=O)N[C@@H](CCC(N)=O)C(=O)N[C@@H](CCC(=O)O)C(=O)N[C@@H](Cc1ccccc1)C(=O)N[C@H](C(=O)NC(C)(C)C(=O)N[C@@H](Cc1c[nH]c2ccccc12)C(=O)N[C@@H](CC(C)C)C(=O)N[C@@H](CCC(=O)O)C(=O)N[C@@H](CC(=O)O)C(=O)N[C@@H](CCC(=O)O)C(=O)NCC(=O)N[C@@H](C)C(=O)N1CCC[C@H]1C(=O)N1CCC[C@H]1C(=O)N1CCC[C@H]1C(=O)N[C@@H](CO)C(=O)O)C(C)C [Compound A12] (H-YSHGTFTSDYSKYLD[Aib]KRAQEFV[Aib]WLEDEGAPPPS-OH; N-terminus assumed) | > 1 |
| CC(C)C[C@H](NC(=O)[C@H](Cc1ccc(O)cc1)NC(=O)[C@H](CCCCN)NC(=O)[C@H](CO)NC(=O)[C@H](Cc1ccc(O)cc1)NC(=O)[C@H](CC(=O)O)NC(=O)[C@H](CO)NC(=O)[C@@H](NC(=O)[C@H](Cc1ccccc1)NC(=O)[C@@H](NC(=O)CNC(=O)[C@H](Cc1c[nH]cn1)NC(=O)[C@H](CO)NC(=O)[C@@H](N)Cc1ccc(O)cc1)[C@@H](C)O)[C@@H](C)O)C(=O)N[C@@H](CC(=O)O)C(=O)NC(C)(C)C(=O)N[C@@H](CCCCN)C(=O)N[C@@H](CCCNC(=N)N)C(=O)N[C@@H](C)C(=O)N[C@@H](CCC(N)=O)C(=O)N[C@@H](CCC(=O)O)C(=O)N[C@@H](Cc1ccccc1)C(=O)N[C@H](C(=O)NC(C)(C)C(=O)N[C@@H](Cc1c[nH]c2ccccc12)C(=O)N[C@@H](CC(C)C)C(=O)N[C@@H](CCC(=O)O)C(=O)N[C@@H](CC(=O)O)C(=O)N[C@@H](CCC(=O)O)C(=O)N[C@@H](CO)C(=O)NCC(=O)N[C@@H](C)C(=O)N1CCC[C@H]1C(=O)N1CCC[C@H]1C(=O)N1CCC[C@H]1C(=O)N[C@@H](CO)C(=O)O)C(C)C [Compound A13] (H-YSHGTFTSDYSKYLD[Aib]KRAQEFV[Aib]WLEDESGAPPPS-OH; N-terminus assumed) | > 1 |
| CC(C)C[C@H](NC(=O)[C@H](Cc1c[nH]c2ccccc12)NC(=O)[C@H](CCCCN)NC(=O)[C@H](CO)NC(=O)[C@H](Cc1ccc(O)cc1)NC(=O)[C@H](CC(=O)O)NC(=O)[C@H](CO)NC(=O)[C@@H](NC(=O)[C@H](Cc1ccccc1)NC(=O)[C@@H](NC(=O)CNC(=O)[C@H](Cc1c[nH]cn1)NC(=O)[C@H](CO)NC(=O)[C@@H](N)Cc1ccc(O)cc1)[C@@H](C)O)[C@@H](C)O)C(=O)N[C@@H](CC(=O)O)C(=O)NC(C)(C)C(=O)N[C@@H](C)C(=O)N[C@@H](CCCNC(=N)N)C(=O)N[C@@H](C)C(=O)N[C@@H](CCC(N)=O)C(=O)N[C@@H](CCC(=O)O)C(=O)N[C@@H](Cc1ccccc1)C(=O)N[C@H](C(=O)NC(C)(C)C(=O)N[C@@H](Cc1c[nH]c2ccccc12)C(=O)N[C@@H](CC(C)C)C(=O)N[C@@H](CCC(=O)O)C(=O)N[C@@H](CC(=O)O)C(=O)N[C@@H](CCC(=O)O)C(=O)N1CCC[C@H]1C(=O)N[C@@H](CO)C(=O)N[C@@H](CO)C(=O)NCC(=O)N[C@@H](C)C(=O)N1CCC[C@H]1C(=O)N1CCC[C@H]1C(=O)N1CCC[C@H]1C(=O)N[C@@H](CO)C(=O)O)C(C)C [Compound A18] (H-YSHGTFTSDYSKWLD[Aib]ARAQEFV[Aib]WLEDEPSSGAPPPS-OH; N-terminus assumed) | > 1 |
| CC(C)C[C@H](NC(=O)[C@H](Cc1ccc(O)cc1)NC(=O)[C@H](CCCCN)NC(=O)[C@H](CO)NC(=O)[C@H](Cc1ccc(O)cc1)NC(=O)[C@H](CC(=O)O)NC(=O)[C@H](CO)NC(=O)[C@@H](NC(=O)[C@H](Cc1ccccc1)NC(=O)[C@@H](NC(=O)CNC(=O)[C@H](Cc1c[nH]cn1)NC(=O)[C@H](CO)NC(=O)[C@@H](N)Cc1ccc(O)cc1)[C@@H](C)O)[C@@H](C)O)C(=O)N[C@@H](CC(=O)O)C(=O)NC(C)(C)C(=O)N[C@@H](CCCCN)C(=O)N[C@@H](CCCNC(=N)N)C(=O)N[C@@H](C)C(=O)N[C@@H](CCC(N)=O)C(=O)N[C@@H](CCC(=O)O)C(=O)N[C@@H](Cc1ccccc1)C(=O)N[C@H](C(=O)NC(C)(C)C(=O)N[C@@H](Cc1c[nH]c2ccccc12)C(=O)N[C@@H](CC(C)C)C(=O)N[C@@H](CCC(=O)O)C(=O)N[C@@H](CC(=O)O)C(=O)N[C@@H](CCC(=O)O)C(=O)N1CCC[C@H]1C(=O)N[C@@H](CO)C(=O)N[C@@H](CO)C(=O)N[C@@H](CCCCN)C(=O)NCC(=O)N[C@@H](C)C(=O)N1CCC[C@H]1C(=O)N1CCC[C@H]1C(=O)N1CCC[C@H]1C(=O)N[C@@H](CO)C(=O)O)C(C)C [Compound A24] (H-YSHGTFTSDYSKYLD[Aib]KRAQEFV[Aib]WLEDEPSSKGAPPPS-OH) | > 1 |
| CC(C)C[C@H](NC(=O)[C@H](Cc1ccc(O)cc1)NC(=O)[C@H](CCCCN)NC(=O)[C@H](CO)NC(=O)[C@H](Cc1ccc(O)cc1)NC(=O)[C@H](CC(=O)O)NC(=O)[C@H](CO)NC(=O)[C@@H](NC(=O)[C@H](Cc1ccccc1)NC(=O)[C@@H](NC(=O)CNC(=O)[C@H](Cc1c[nH]cn1)NC(=O)[C@H](CO)NC(=O)[C@@H](N)Cc1ccc(O)cc1)[C@@H](C)O)[C@@H](C)O)C(=O)N[C@@H](CC(=O)O)C(=O)NC(C)(C)C(=O)N[C@@H](CCCCN)C(=O)N[C@@H](CCCNC(=N)N)C(=O)N[C@@H](C)C(=O)N[C@@H](CCC(N)=O)C(=O)N[C@@H](CCC(=O)O)C(=O)N[C@@H](Cc1ccccc1)C(=O)N[C@H](C(=O)NC(C)(C)C(=O)N[C@@H](Cc1c[nH]c2ccccc12)C(=O)N[C@@H](CC(C)C)C(=O)N[C@@H](CCC(=O)O)C(=O)N[C@@H](CC(=O)O)C(=O)N[C@@H](CCC(=O)O)C(=O)NCC(=O)NCC(=O)N1CCC[C@H]1C(=O)N[C@@H](CO)C(=O)N[C@@H](CO)C(=O)NCC(=O)N[C@@H](C)C(=O)N1CCC[C@H]1C(=O)N1CCC[C@H]1C(=O)N1CCC[C@H]1C(=O)N[C@@H](CO)C(=O)O)C(C)C [Compound A27] (H-YSHGTFTSDYSKYLD[Aib]KRAQEFV[Aib]WLEDEGGPSSGAPPPS-OH; N-terminus assumed) | > 1 |
| CC(C)C[C@H](NC(=O)[C@H](Cc1c[nH]c2ccccc12)NC(=O)[C@H](CCCCN)NC(=O)[C@H](CO)NC(=O)[C@H](Cc1ccc(O)cc1)NC(=O)[C@H](CC(=O)O)NC(=O)[C@H](CO)NC(=O)[C@@H](NC(=O)[C@H](Cc1ccccc1)NC(=O)[C@@H](NC(=O)CNC(=O)[C@H](Cc1c[nH]cn1)NC(=O)[C@@H](NC(=O)[C@@H](N)Cc1ccc(O)cc1)[C@@H](C)O)[C@@H](C)O)[C@@H](C)O)C(=O)N[C@@H](CC(=O)O)C(=O)NC(C)(C)C(=O)N[C@@H](CCCCN)C(=O)N[C@@H](CCCNC(=N)N)C(=O)N[C@@H](C)C(=O)N[C@@H](CCC(N)=O)C(=O)N[C@@H](CCC(=O)O)C(=O)N[C@@H](Cc1ccccc1)C(=O)N[C@H](C(=O)NC(C)(C)C(=O)N[C@@H](Cc1c[nH]c2ccccc12)C(=O)N[C@@H](CC(C)C)C(=O)N[C@@H](CCC(=O)O)C(=O)N[C@@H](CC(=O)O)C(=O)N[C@@H](CCC(=O)O)C(=O)N1CCC[C@H]1C(=O)N[C@@H](CO)C(=O)N[C@@H](CO)C(=O)NCC(=O)N[C@@H](C)C(=O)N1CCC[C@H]1C(=O)N1CCC[C@H]1C(=O)N1CCC[C@H]1C(=O)N[C@@H](CO)C(=O)O)C(C)C [Compound A32] (H-YTHGTFTSDYSKWLD[Aib]KRAQEFV[Aib]WLEDEPSSGAPPPS-OH; N-terminus assumed) | > 1 |
| CC(C)C[C@H](NC(=O)[C@H](Cc1ccc(O)cc1)NC(=O)[C@H](CCCCN)NC(=O)[C@H](CO)NC(=O)[C@H](Cc1ccc(O)cc1)NC(=O)[C@H](CC(=O)O)NC(=O)[C@H](CO)NC(=O)[C@@H](NC(=O)[C@H](Cc1ccccc1)NC(=O)[C@@H](NC(=O)CNC(=O)[C@H](Cc1c[nH]cn1)NC(=O)[C@H](CO)NC(=O)[C@@H](N)Cc1ccc(O)cc1)[C@@H](C)O)[C@@H](C)O)C(=O)N[C@@H](CC(=O)O)C(=O)N[C@@H](CO)C(=O)N[C@@H](C)C(=O)N[C@@H](CCCNC(=N)N)C(=O)N[C@@H](C)C(=O)N[C@@H](CCC(N)=O)C(=O)N[C@@H](CCC(=O)O)C(=O)N[C@@H](Cc1ccccc1)C(=O)N[C@H](C(=O)N[C@@H](CCCCN)C(=O)N[C@@H](Cc1c[nH]c2ccccc12)C(=O)N[C@@H](CC(C)C)C(=O)N[C@@H](CCC(=O)O)C(=O)N[C@@H](CC(=O)O)C(=O)N[C@@H](CCC(=O)O)C(=O)N1CCC[C@H]1C(=O)N[C@@H](CO)C(=O)N[C@@H](CO)C(=O)NCC(=O)N[C@@H](C)C(=O)N1CCC[C@H]1C(=O)N1CCC[C@H]1C(=O)N1CCC[C@H]1C(=O)N[C@@H](CO)C(=O)O)C(C)C [Compound A37] (H-YSHGTFTSDYSKYLDSARAQEFVKWLEDEPSSGAPPPS-OH; N-terminus assumed) | > 1 |
